Source: patent US20250115597A1, “TYK2 INHIBITORS AND COMPOSITIONS AND METHODS THEREOF” (LYNK PHARMACEUTICALS CO. LTD., priority 2021, published 2025)
Like-named read-outs stand apart in the source and are kept apart here.

Tests used:
[1] = target: T1, Ba/F3-FL-TYK2-P760L cells (Homo sapiens, UniProt P29597, P760L, cells depend on it); experiment: Anti-proliferative assay, Ba/F3-FL-TYK2-P760L cells (Cell-Titer Glo); type: cell-based; conditions: 72 h, read-out: BaF3-FL-T2P760L IC50
T1 construct: BaF3-FL-T2P760L (nM)
In short: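 Ba/F3 cells made IL-3-independent by TEL-fused or full-length mutant JAK-family kinases, seeded at 2000/well and dosed after 24 h with 9 three-fold dilutions topping at 20 μM. Viability after 72 h at 37 °C, 5% CO2 by Cell-Titer Glo ATP luminescence.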

[2] = tested on: pSTAT1; experiment: Phosphorylation inhibition of STAT in human whole blood, IFN-alpha stimulated (flow cytometry); type: cell-based; conditions: 20 min, read-out: IC50 on pSTAT1 inhibition in h WB
In short: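 Freshly prepared PBMC or freshly collected whole blood stimulated with human Universal Type I IFN-alpha for 20 min, then fixed, permeabilized on ice and stained for CD3 and pSTAT1 (Y701). pSTAT1 read by flow cytometry; IC50 from 4-parameter logistic fit.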

[3] = tested on: pSTAT1; experiment: Phosphorylation inhibition of STAT in human PBMC, IFN-alpha stimulated (flow cytometry); type: cell-based; conditions: 20 min, read-out: IC50 on pSTAT1 inhibition in hPBMC
Description: Phosphorylation Inhibition of STAT in Human PBMC and Human Whole Blood Testing:
The inhibitory potential of test articles in human PBMC and human whole blood assay was evaluated by the method of flow cytometry.
IFN-alpha will activate JAK1 and TYK2 kinase in T cells by binding to IFN receptors, and then lead to phosphorylation of STAT1 and STAT2. The phosphorylated STAT1 enter nuclear and promote transcription and expression of IFN-gamma. To evaluate the efficacy of TYK2i in T cells, freshly prepared human PBMC or freshly collected human whole blood will be stimulated with certain unit of human IFN-alpha (Universal Type I IFN(1MU), R&D, 11200-2) for 20 mins in incubator. After stimulation, fix cells with Phosflow™ Fix Buffer I (BD, 557870), and then collect fixed cells by centrifugation (500 g, 8 min). Wash cells once with pre-cooled PBS, and then permeabilize cells with cold Perm Buffer III buffer (BD, 558050) for 45 mins on ice. Collect cells by centrifugation (600 g, 8 min) and washed twice with cold PBS. Stain cells with anti-human CD3 (FITC Mouse Anti-Human CD3, BD, 555332) and anti-pSTAT1_Y701(Alexa Fluor 647 Mouse Anti-Stat1 (pY701), BD, 612597) antibodies. Detect pSTAT1 by flow cytometry (CytoFlex S) and analyze data with FlowJo and GraphPad Prism 8 software. IC50 values of test articles were determined using 4-parameter logistic equation.

[4] = Microsomal metabolic stability assay; type: in vitro ADME; conditions: pH 7.4, 0.5 mg/mL protein, 1 μM compound
In short: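 Test article at 1 μM with 0.5 mg/mL microsomal protein and 2 mM NADPH, in 100 mM potassium phosphate pH 7.4 with 1.0 mM EDTA at 37 °C. Sampled at 0–45 min and quantified by LC/MS/MS. T1/2 from the slope of ln % remaining vs time.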

[5] = target: T2, TYK2-JH2 domain (Homo sapiens, UniProt P29597); experiment: Binding activity test for JH2 domain of TYK2 (Tb-antibody/tracer FRET); conditions: for JAK1/TYK2 selectivity: ratio JAK1-JH2 IC50 / TYK2-JH2 IC50
T2 construct: IC50 on JH2 domain activity (nM)
In short: (§1)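 Compounds tested as 11-point 3-fold serial dilutions against the JH2 domain in a Tb-antibody/tracer FRET binding format. Plates incubated 60 min at 25° C, then overnight at 4° C, before FRET reading.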

[6] = target: T3, JAK1-JH2 domain (Homo sapiens, UniProt P23458); experiment: Binding activity test for JH2 domain of JAK1 (Tb-antibody/tracer FRET)
T3 construct: IC50 on JH2 domain activity (nM)
In short: as §1

[7] = Hepatocytes metabolic stability assay; type: in vitro ADME; conditions: cryopreserved hepatocytes, human hepatocytes, 1.0×10^6 cells/mL; for CLint scaled at 1 μM: read-out: Human hepatocyte Clint(liver); for half-life at 1 μM: read-out: Human hepatocyte stability T1/2
In short: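 Cryopreserved hepatocytes (1.0×10^6 cells/mL final) were incubated with test compound at 1 μM at 37 °C and sampled at 0, 15, 30, 60 and 120 min, with acetonitrile quench and LC-MS/MS. k came from log-linear % remaining versus time, giving T1/2 and CLint.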

[8] = target: T4, JAK1 (Homo sapiens, UniProt P23458); experiment: JAK1 kinase activity, microfluidic assay (Caliper EZ Reader II); type: biochemical; conditions: JAK1 5 nM, 1 mM ATP
T4 construct: purchased Carna Biosciences
In short: (§2)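 Human JAK1, JAK2 or TYK2 enzyme was used in 50 mM HEPES, 10 mM MgCl2, 2 mM DTT and 0.01% Brij35, tuned to 10% conversion of a FAM-labelled peptide. Threefold dilutions of compound (top 5 µM, 1% DMSO) were pre-incubated with enzyme for 10 min, and reactions were stopped with EDTA. Phosphorylation was read by microfluidic mobility shift, and IC50 came from percent-inhibition curves.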

[9] = target: T5, JAK2 (Homo sapiens, UniProt O60674); experiment: JAK2 kinase activity, microfluidic assay (Caliper EZ Reader II); type: biochemical; conditions: JAK2 0.125 nM, 1 mM ATP
T5 construct: purchased Carna Biosciences
In short: as §2

[10] = target: T6, TYK2 (Homo sapiens, UniProt P29597); experiment: TYK2 kinase activity, microfluidic assay (Caliper EZ Reader II); type: biochemical; conditions: TYK2 1 nM, 1 mM ATP
T6 construct: purchased Carna Biosciences
In short: as §2

[11] = Plasma protein binding by equilibrium dialysis; type: in vitro ADME; conditions: human plasma, equilibrium dialysis 5 hours at 37° C.; read-out: % Bound (human) (converted)
In short: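 Compound spiked into plasma at 0.2 and 2 μM was dialyzed against PBS for 5 h at 37° C with shaking, in duplicate. Plasma and buffer chambers were matrix-matched, protein-precipitated and analysed by LC-MS/MS to derive % unbound, % bound and % recovery.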

[12] = human whole blood, IFN-alpha 20 mins, CD3 cells
[13] = human PBMC, IFN-alpha 20 mins, CD3 cells
[14] = dog liver microsomes, read-out: Dog LM Clint
[15] = dog liver microsomes, read-out: Dog LM T½
[16] = human liver microsomes, read-out: Human LM Clint
[17] = human liver microsomes, read-out: Human LM T½
[18] = rat liver microsomes, read-out: Rat LM Clint
[19] = rat liver microsomes, read-out: Rat LM T½

T1 sequence (P29597 whole entry P760L): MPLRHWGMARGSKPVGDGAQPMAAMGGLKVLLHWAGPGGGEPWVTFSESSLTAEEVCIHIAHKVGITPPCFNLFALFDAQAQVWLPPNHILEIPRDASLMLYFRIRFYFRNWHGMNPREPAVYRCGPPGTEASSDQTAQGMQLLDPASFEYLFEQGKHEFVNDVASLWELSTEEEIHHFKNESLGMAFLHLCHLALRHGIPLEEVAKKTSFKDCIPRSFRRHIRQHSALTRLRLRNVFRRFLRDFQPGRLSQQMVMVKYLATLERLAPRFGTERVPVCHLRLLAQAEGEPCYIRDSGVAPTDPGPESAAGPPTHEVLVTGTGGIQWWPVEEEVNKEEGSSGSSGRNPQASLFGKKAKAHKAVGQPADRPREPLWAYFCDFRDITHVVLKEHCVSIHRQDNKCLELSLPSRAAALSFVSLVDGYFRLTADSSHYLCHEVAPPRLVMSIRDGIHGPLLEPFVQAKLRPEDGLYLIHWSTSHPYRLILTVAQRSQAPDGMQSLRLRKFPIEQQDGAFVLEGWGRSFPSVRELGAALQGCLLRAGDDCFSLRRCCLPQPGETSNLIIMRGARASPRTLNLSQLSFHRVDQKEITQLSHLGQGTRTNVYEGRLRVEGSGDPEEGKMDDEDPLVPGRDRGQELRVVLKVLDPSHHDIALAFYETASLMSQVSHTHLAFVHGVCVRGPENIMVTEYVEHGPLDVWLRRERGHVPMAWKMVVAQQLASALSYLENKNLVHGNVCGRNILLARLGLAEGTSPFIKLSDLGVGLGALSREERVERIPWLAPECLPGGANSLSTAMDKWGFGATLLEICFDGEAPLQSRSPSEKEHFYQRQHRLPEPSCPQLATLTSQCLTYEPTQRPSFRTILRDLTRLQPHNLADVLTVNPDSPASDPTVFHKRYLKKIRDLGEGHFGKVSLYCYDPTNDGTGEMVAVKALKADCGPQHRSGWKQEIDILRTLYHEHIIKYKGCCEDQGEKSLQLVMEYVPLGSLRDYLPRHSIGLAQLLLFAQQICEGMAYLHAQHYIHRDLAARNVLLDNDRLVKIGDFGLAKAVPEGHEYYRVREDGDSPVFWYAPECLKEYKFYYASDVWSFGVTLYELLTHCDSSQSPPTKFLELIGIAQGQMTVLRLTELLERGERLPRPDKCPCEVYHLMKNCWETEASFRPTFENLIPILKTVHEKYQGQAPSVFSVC
T2 sequence (P29597 589-875 limits assumed): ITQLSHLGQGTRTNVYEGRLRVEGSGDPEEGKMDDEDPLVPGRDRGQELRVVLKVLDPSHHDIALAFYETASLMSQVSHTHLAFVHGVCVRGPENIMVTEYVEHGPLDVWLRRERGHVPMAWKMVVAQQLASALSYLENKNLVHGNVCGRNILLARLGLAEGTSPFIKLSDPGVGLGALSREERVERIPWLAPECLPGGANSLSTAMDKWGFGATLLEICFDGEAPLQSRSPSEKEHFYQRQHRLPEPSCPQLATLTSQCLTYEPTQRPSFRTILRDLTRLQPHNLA
T3 sequence (P23458 583-855 limits assumed): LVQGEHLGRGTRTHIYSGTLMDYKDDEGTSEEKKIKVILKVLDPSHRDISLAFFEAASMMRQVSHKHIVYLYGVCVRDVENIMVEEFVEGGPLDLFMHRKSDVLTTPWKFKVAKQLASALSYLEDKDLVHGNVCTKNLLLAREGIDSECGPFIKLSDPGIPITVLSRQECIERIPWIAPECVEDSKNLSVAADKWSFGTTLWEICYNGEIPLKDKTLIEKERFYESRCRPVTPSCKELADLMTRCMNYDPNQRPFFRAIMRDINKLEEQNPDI
T6 sequence (P29597 whole entry): as the sequence (P29597 whole entry P760L) above, with L760P counted along it
T4 sequence (P23458 whole entry): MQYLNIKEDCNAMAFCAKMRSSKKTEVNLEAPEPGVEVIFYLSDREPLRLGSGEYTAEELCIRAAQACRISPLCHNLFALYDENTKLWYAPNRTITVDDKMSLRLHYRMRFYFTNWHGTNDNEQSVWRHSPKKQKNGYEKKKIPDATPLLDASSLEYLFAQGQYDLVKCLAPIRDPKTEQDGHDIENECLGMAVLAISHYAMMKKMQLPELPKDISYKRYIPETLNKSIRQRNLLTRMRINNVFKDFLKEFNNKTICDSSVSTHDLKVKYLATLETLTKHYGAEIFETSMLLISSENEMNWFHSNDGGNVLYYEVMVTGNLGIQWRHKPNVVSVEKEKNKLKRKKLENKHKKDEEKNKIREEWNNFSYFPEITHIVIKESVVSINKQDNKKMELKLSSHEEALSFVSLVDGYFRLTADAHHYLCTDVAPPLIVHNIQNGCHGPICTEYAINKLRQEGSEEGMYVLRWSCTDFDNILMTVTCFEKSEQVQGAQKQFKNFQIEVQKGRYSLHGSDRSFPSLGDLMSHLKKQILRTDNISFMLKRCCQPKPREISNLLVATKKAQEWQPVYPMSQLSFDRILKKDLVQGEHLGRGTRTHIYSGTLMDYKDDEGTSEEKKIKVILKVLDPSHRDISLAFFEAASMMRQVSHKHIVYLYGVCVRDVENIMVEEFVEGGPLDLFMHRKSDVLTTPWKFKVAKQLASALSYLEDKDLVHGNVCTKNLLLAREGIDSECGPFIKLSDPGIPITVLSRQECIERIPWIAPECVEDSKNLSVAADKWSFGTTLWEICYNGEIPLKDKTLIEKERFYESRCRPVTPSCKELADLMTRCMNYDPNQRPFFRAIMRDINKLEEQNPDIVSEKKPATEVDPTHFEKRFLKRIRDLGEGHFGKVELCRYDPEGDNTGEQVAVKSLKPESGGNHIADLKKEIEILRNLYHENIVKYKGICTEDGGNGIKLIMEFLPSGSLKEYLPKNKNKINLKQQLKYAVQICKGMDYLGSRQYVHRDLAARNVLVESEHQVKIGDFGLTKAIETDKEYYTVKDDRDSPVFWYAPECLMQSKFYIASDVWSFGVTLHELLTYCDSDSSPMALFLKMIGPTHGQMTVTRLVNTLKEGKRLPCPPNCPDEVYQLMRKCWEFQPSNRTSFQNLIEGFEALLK
T5 sequence (O60674 whole entry): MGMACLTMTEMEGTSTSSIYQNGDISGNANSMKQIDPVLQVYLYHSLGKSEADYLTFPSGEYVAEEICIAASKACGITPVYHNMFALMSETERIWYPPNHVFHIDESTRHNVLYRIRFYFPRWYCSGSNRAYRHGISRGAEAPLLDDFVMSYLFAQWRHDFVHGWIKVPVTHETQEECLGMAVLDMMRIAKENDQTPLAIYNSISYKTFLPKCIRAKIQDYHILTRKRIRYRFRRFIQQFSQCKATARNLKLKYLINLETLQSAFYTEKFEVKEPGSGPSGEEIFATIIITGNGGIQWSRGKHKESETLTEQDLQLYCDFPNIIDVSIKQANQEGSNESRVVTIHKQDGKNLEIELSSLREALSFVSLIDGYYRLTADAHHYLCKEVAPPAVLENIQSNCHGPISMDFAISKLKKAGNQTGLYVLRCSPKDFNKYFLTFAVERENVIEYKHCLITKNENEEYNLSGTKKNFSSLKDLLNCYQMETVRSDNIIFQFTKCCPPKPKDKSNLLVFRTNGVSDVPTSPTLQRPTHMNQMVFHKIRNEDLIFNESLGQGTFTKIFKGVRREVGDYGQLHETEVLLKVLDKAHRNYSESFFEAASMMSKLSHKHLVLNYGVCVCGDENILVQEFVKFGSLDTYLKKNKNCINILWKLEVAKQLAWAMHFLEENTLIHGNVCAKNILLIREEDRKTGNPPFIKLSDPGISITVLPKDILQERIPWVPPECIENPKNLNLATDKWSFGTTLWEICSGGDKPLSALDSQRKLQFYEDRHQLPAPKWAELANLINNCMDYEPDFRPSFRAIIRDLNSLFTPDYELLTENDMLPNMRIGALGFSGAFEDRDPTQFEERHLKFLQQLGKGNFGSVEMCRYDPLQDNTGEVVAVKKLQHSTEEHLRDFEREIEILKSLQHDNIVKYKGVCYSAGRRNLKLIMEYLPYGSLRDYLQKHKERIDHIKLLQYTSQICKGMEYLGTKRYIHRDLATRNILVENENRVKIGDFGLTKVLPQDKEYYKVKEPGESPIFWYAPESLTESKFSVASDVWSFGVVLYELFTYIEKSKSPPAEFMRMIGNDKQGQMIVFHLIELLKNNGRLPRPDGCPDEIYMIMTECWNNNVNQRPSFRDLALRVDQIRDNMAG

Row | Compound | GI50 [1] [nM] | IC50 [2, 12] [nM] | IC50 [3, 13] [nM] | microsomal CLint at 1 μM [4, 14] [µL/min/mg] | half-life at 1 μM [4, 15] [h] | microsomal CLint at 1 μM [4, 16] [µL/min/mg] | half-life at 1 μM [4, 17] [h] | microsomal CLint at 1 μM [4, 18] [µL/min/mg] | half-life at 1 μM [4, 19] [h] | IC50 [5] [nM] | CLint scaled at 1 μM [7] [mL/min/kg] | half-life at 1 μM [7] [h] | further results
1 | [2H]C([2H])([2H])NC(=O)c1cnc(Nc2ccc(F)cn2)cc1Nc1cn(C)c2c(F)cn(CC)c(=O)c12 [Example 125, 4-((5-Ethyl-7-fluoro-1-methyl-4-oxo-4,5-dihydro-1H-pyrrolo[3,2-c]pyridin-3-yl)amino)-6-((5-fluoropyridin-2-yl)amino)-N-(methyl-d3)nicotinamide] | 31.9 | 581 | 75.7 | – | – | – | – | – | – | 1.44 | – | – | –
2 | [2H]C([2H])([2H])NC(=O)c1cnc(NC(=O)C2CC2)cc1Nc1ccn2ncc(CC)c2c1OC [Example 166, 6-(Cyclopropanecarboxamido)-4-((3-ethyl-4-methoxypyrazolo[1,5-a]pyridin-5-yl)amino)-N-(methyl-d3)nicotinamide] | 51.6 | 471 | 20.7 | – | – | – | – | – | – | 0.154 | 11.2 | 2.61 | JAK1/TYK2 selectivity [5]: 88.3; IC50 [6]: 13.6 nM
3 | [2H]C([2H])([2H])NC(=O)c1nnc(NC(=O)C2CC2)cc1Nc1csc2ccn(CC)c(=O)c12 [Example 197, 6-(Cyclopropanecarboxamido)-N-(methyl-d3)-4-((5-ethyl-4-oxo-4,5-dihydrothieno[3,2-c]pyridin-3-yl)amino)pyridazine-3-carboxamide] | 54.3 | 863 | 428 | 20.8 | 1.11 | 77.7 | 0.298 | 290 | 0.0798 | – | < 7.35 | > 4 | –
4 | [2H]C([2H])([2H])NC(=O)c1nnc(NC(=O)C2CC2)cc1Nc1cn(C)c2ccn(CC)c(=O)c12 [Example 223, 6-(Cyclopropanecarboxamido)-4-((5-ethyl-1-methyl-4-oxo-4,5-dihydro-1H-pyrrolo[3,2-c]pyridin-3-yl)amino)-N-(methyl-d3)pyridazine-3-carboxamide] | 82.7 | 376 | 43.4 | – | – | – | – | – | – | – | – | – | –
5 | [2H]C([2H])([2H])NC(=O)c1cnc(NC(=O)C2CC2)cc1Nc1csc2cnn(CC)c(=O)c12 [Example 231, 6-(Cyclopropanecarboxamido)-4-((5-ethyl-4-oxo-4,5-dihydrothieno[2,3-d]pyridazin-3-yl)amino)-N-(methyl-d3)nicotinamide] | 65.9 | – | – | – | – | – | – | – | – | 0.979 | – | – | IC50 ([2]; Homo sapiens): 14400 nM; IC50 ([3]; Homo sapiens, PBMC): 3510 nM

The remaining compounds from weak to strong by GI50 [1], led by results:

Row | GI50 [1] [nM] | IC50 [2, 12] [nM] | IC50 [3, 13] [nM] | microsomal CLint at 1 μM [4, 14] [µL/min/mg] | half-life at 1 μM [4, 15] [h] | microsomal CLint at 1 μM [4, 16] [µL/min/mg] | half-life at 1 μM [4, 17] [h] | microsomal CLint at 1 μM [4, 18] [µL/min/mg] | half-life at 1 μM [4, 19] [h] | IC50 [5] [nM] | CLint scaled at 1 μM [7] [mL/min/kg] | half-life at 1 μM [7] [h] | Compound | further results
6 | 74.5 | 376 | 107 | – | – | – | – | – | – | 0.25 | – | – | [2H]C([2H])([2H])NC(=O)c1cnc(NC(=O)C2CC2)cc1Nc1cn(CC2CC2)c2ncn(CC)c(=O)c12 [Example 213, 6-(Cyclopropanecarboxamido)-4-((7-(cyclopropylmethyl)-3-ethyl-4-oxo-4,7-dihydro-3H-pyrrolo[2,3-d]pyrimidin-5-yl)amino)-N-(methyl-d3)nicotinamide] | fraction unbound at 5 h [11]: 0.025
7 | 64.9 | 422 | 35.1 | – | – | – | – | – | – | 0.31 | 8.6 | 3.44 | [2H]C([2H])([2H])NC(=O)c1cnc(NC(=O)C2CC2)cc1Nc1ccn2ncc(C)c2c1OC [Example 169, 6-(Cyclopropanecarboxamido)-4-((4-methoxy-3-methylpyrazolo[1,5-a]pyridin-5-yl)amino)-N-(methyl-d3)nicotinamide] | JAK1/TYK2 selectivity [5]: 28.3; IC50 [6]: 8.76 nM
8 | 48.7 | 823 | 79.5 | 5.63 | 4.1 | 27.4 | 0.843 | 21.9 | 1.05 | – | – | – | [2H]C([2H])([2H])NC(=O)c1nnc2cc1Nc1cc(cc(-c3ncn(C)n3)c1OC)COCc1cc(F)cc(n1)N2 [Example 71, 19-Fluoro-10-methoxy-N-(methyl-d3)-11-(1-methyl-1H-1,2,4-triazol-3-yl)-15-oxa-2,4,5,8,21-pentaazatetracyclo[15.3.1.1^{3,7}.1^{9,13}]tricosa-1(21),3,5,7(23),9(22),10,12,17,19-nonaene-6-carboxamide] | –
9 | 45.7 | 147 | 33.3 | – | – | – | – | – | – | – | – | – | [2H]C([2H])([2H])NC(=O)c1cnc(NC(=O)C2CC2)cc1Nc1ccc2cnn(CC#N)c2c1OC [Example 202, 4-((1-(Cyanomethyl)-7-methoxy-1H-indazol-6-yl)amino)-6-(cyclopropanecarboxamido)-N-(methyl-d3)nicotinamide] | IC50 [8]: > 5000 nM; IC50 [9]: > 5000 nM; IC50 [10]: > 5000 nM; fraction unbound at 5 h [11]: 0.113
10 | 38.7 | 1580 | 113 | 26.7 | 0.866 | < 11.5 | > 2 | < 11.5 | > 2 | – | – | – | [2H]C([2H])([2H])NC(=O)c1cnc2cc1Nc1cc(cc(-c3ncn(C4CC4)n3)c1OC)COCc1nc(ccc1F)N2 [Example 83, 11-(1-Cyclopropyl-1H-1,2,4-triazol-3-yl)-18-fluoro-10-methoxy-N-(methyl-d3)-15-oxa-2,4,8,21-tetraazatetracyclo[15.3.1.1^{3,7}.1^{9,13}]tricosa-1(20),3,5,7(23),9(22),10,12,17(21),18-nonaene-6-carboxamide] | –
